Measurements from publication PMC9029323, “In Silico Identification of Novel Inhibitors Targeting the Homodimeric Interface of Superoxide Dismutase from the Dental Pathogen Streptococcus mutans” (Antioxidants, 2022).
Entries after “also recorded” stand apart in the source; their conditions may differ. Read-outs that look alike come from different tables or passages of the source.

Experiments:
[1] = target: T1, SmSOD (Streptococcus mutans serotype c, UniProt P09738); assay: SOD activity assay (inhibition of cytochrome c reduction, xanthine/xanthine oxidase method) with SmSOD; assay type: biochemical
T1 construct: His-tail; made in house; host or cells: Escherichia coli BL21(DE3), vector vSmSOD (pET-22b(+)-derived)
T1 sequence (P09738 2-203): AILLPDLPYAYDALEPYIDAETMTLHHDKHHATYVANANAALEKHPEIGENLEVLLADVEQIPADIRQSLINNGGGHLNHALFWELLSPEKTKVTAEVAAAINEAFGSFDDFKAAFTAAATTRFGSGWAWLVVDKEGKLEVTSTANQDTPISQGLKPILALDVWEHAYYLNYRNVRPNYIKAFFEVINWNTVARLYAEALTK
Description: (§1) Purified recombinant forms of SmSOD and StSOD were obtained through a heterologous expression system constituted by the Escherichia coli BL21(DE3) strain transformed with appropriate expression vectors, vSmSOD [11] or vStSOD [12]. These pET-22b(+)- or pET-28b(+)-derived plasmids led to the production of recombinant forms of SmSOD or StSOD, respectively fused to a His-tail, useful for their one-step purification by affinity chromatography, as previously described [11, 12]. The improvement of Mn uptake by SmSOD was realised as previously described [11, 12, 13]. The resulting metal (Fe and Mn) content in the cambialistic enzyme was determined by graphite furnace atomic absorption spectrometry with a Shimadzu ACS-6100 auto sampler [46]. Fe-SOD from Escherichia coli (cat. SRP6107) and the Cu/Zn-SOD from bovine erythrocytes (cat. 574594) were purchased from Sigma–Aldrich. A recombinant form of the eukaryal Mn–SOD from rat mitochondria was prepared as previously described [19]. Protein concentration was determined by the Bradford method, using bovine serum albumin as standard [47]. […] One unit of SOD activity was defined as the amount of enzyme that caused 50% inhibition of cytochrome c reduction.

[2] = target: T2, Cu/ZnSOD from bovine erythrocytes (Bos taurus, UniProt P00442); assay: SOD activity assay with Cu/Zn-SOD; assay type: biochemical
T2 construct: the Cu/Zn-SOD from bovine erythrocytes (cat. 574594) were purchased from Sigma–Aldrich; purchased Sigma–Aldrich 574594; host or cells: bovine erythrocytes
T2 sequence (P00442 whole entry): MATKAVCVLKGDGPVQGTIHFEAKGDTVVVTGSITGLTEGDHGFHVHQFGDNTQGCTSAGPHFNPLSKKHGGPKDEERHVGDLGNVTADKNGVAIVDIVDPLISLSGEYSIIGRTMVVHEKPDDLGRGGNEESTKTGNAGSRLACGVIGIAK
Description: as §1

[3] = target: T1, SmSOD; assay: Gel electrophoresis of SmSOD under not denaturing conditions; details: 7 to 51 µM protein, preincubation with 488 µM compound; not shown
Description: The putative reversible interaction between SmSOD and ALS-31 was further investigated through the behaviour of this enzyme in gel electrophoresis. […] Therefore, the reversible and non-covalent interaction between SmSOD and ALS-31 allowed the disassemblage of the enzyme and consequently its inhibition, only when a proper concentration of the inhibitor remained in contact with the enzyme.

[4] = system: Streptococcus mutans ATCC-700610; assay: Broth micro-dilution antibacterial assay (planktonic growth); assay type: cell-based; details: 24 h
Experimental: The bacterial strain used for antimicrobial assays was Streptococcus mutans ATCC-700610. The strain was stored in 15% (v/v) glycerol stocks at −80 °C. Before each experiment, cells were subcultured from the stocks into Trypticase Soy Agar (TSA, cat. PA-254051.06) with 5% Sheep Blood (Becton Dickinson, Sparks, NV, USA) plates at 37 °C in 5% CO2 atmosphere for 48 h.
The antibacterial activity of compounds ALS-31 or ALS-31-9 was assayed in S. mutans cultures by a standard broth micro-dilution method in 96-well polystyrene plates using Brain-Heart Infusion broth (BHI, cat. 255003, Becton Dickinson, Sparks, NV, USA). One hundred microliters of bacterial suspension adjusted to approximately 1.5 × 10^6 CFU/mL were incubated with 100 µL of serial dilutions of the compounds dissolved in final 1.0% (v/v) DMSO as a vehicle. The plates were incubated at 37 °C in 5% CO2 atmosphere for 24 h under shaking (300 rpm). The medium turbidity was measured by a spectrophotometer at 595 nm (Bio-Rad Laboratories Inc., Hercules, CA, USA). Compound-free wells in 1.0% (v/v) DMSO were used as controls (100% planktonic growth), and antibacterial activity was expressed as a percentage of residual growth. Chlorhexidine acetate (CHX, cat. 51094, Sigma-Aldrich, St. Louis, MO, USA) solution (1 mg/mL) was prepared and included as control for the assay of S. mutans’ susceptibility (MIC referred to [51]). Each compound was tested in triplicate; each experiment was performed twice.

CSCCC(NC(=O)COc1ccc2c3c(c(=O)oc2c1)CCCC3)C(=O)NCCC(=O)O (centres unmarked) [ALS-31] showed a remaining activity at 20 µM ([1]; 20 µM compound, activity of SmSOD in the absence of compound equal to 100, read-out: Residual SOD Activity (%) in the Presence of [Compound]) of 92%, a remaining activity at 50 µM ([1]; 50 µM compound, activity of SmSOD in the absence of compound equal to 100, Table 1, read-out: Residual SOD Activity (%) in the Presence of [Compound]) of 71% and an IC50 ([1]; Mn-basal SmSOD, read-out: IC50 (concentration leading to 50% inhibition of SmSOD activity)) of 159 µM. For the same molecule, the IC50 ([1]; Mn-enriched SmSOD, basal Mn content 2.7-fold improved after metal exchange, read-out: IC50 in the Mn-enriched enzyme) was 262 ± 11 µM, the remaining activity at 100 µM ([1]; read-out: Residual SOD Activity (%) in the Presence of [Compound]) was 56% and the “effect on SmSOD activity (in words)” value ([1]; screening concentrations or inhibition profile up to 300 µM) was “dose-dependent reduction; also recorded: evident dose-dependent inhibition”. For the same molecule, the IC50 [2] was 146 ± 25 µM, the “electrophoretic mobility of SmSOD” value [3] was “no change” and the “percentage of planktonic growth of S. mutans” value ([4]; 104 µM) was 74.3 ± 4.5%. The “percentage of planktonic growth of S. mutans” value ([4]; 209 µM) was 50.7 ± 4.2% and the “concentration up to which no antimicrobial activity is displayed in S. mutans suspensions” value [4] was at most 50 µM.
